# Measurements as given in patent US10681909B2, “Herbicidal triazoles” (FMC Corporation, priority 2014, dated 2020).
# Tests used:
# kochia = assay: Test D preemergence; type: in vivo, Kochia scoparia; conditions: for Plant response rating: Kochia: scale 0 to 100
# Excerpt: (§1) Seeds of plant species selected from bluegrass (annual bluegrass, Poa annua), blackgrass (Alopecurus myosuroides), canarygrass (Phalaris minor), chickweed (common chickweed, Stellaria media), galium (catchweed bedstraw, Galium aparine), bromegrass, down (downy bromegrass, Bromus tectorum), Russian thistle (Salsola kali), field poppy (Papaver rhoeas), field violet (Viola arvensis), foxtail, green (green foxtail, Setaria viridis), deadnettle (henbit deadnettle, Lamium amplexicaule), ryegrass, Ital. (Italian ryegrass, Lolium multiflorum), kochia (Kochia scoparia), lambsquarters (Chenopodium album), oilseed rape (Brassica napus), pigweed (Amaranthus retroflexus), chamomile (scentless chamomile, Matricaria inodora), speedwell (bird's-eye speedwell, Veronica persica), barley, spring (spring barley, Hordeum vulgare), wheat, spring (spring wheat, Triticum aestivum), buckwheat, wild (wild buckwheat, Polygonum convolvulus), wild mustard (Sinapis arvensis), oat, wild (wild oat, Avena fatua), radish, wild (wild radish, Raphanus raphanistrum), […]), barley, winter (winter barley, Hordeum vulgare), and wheat, winter (winter wheat, Triticum aestivum) were planted into a silt loam soil and treated preemergence with test chemicals formulated in a non-phytotoxic solvent mixture which included a surfactant. At the same time, these species were planted in pots containing Sunshine Redi-Earth® planting medium comprising spaghnum peat moss, vermiculite, starter nutrients and dolomitic limestone and treated with postemergence applications of the test chemicals formulated in the same manner. Plants ranged in height from 2 to 18 cm (1- to 4-leaf stage). Treated plants and controls were maintained in a controlled growth environment for 14 to 21 d after which time all species were compared to controls and visually evaluated. […] A dash (-) response means no test result.
# oat, wild = assay: Test D postemergence; type: in vivo, Avena fatua; conditions: scale 0 to 100
# Excerpt: as §1
# galium = assay: Test A postemergence; type: in vivo, Galium aparine; conditions: 0 to 100 scale (0 no effect, 100 complete control), approx. 10 d
# In short: (§2)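 Seeds sown in loam soil–sand blend received a directed preemergence soil spray of test chemical in non-phytotoxic solvent with surfactant; postemergence plants, 2 to 10 cm at one- to two-leaf stage, were sprayed with the same formulation. Injury visually rated versus untreated controls after ~10 d in greenhouse, 0–100 scale.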
# ryegrass, Italian = assay: Test A preemergence; type: in vivo, Lolium multiflorum; conditions: 0 to 100 scale (0 no effect, 100 complete control)
# In short: as §2
# lambsquarters = assay: Test D postemergence; type: in vivo, Chenopodium album; conditions: scale 0 to 100
# Excerpt: as §1
# pigweed [1] = assay: Test D preemergence; type: in vivo, Amaranthus retroflexus; conditions: for Plant response rating: Pigweed: scale 0 to 100
# Excerpt: as §1
# pigweed [2] = assay: Test D postemergence; type: in vivo, Amaranthus retroflexus; conditions: scale 0 to 100
# Excerpt: as §1
# johnsongrass = assay: Test C preemergence; type: in vivo, Sorghum halepense; conditions: for Plant response rating (scale of 0 to 100 where 0 is no effect and 100 is complete control): Johnsongrass, preemergence; for Johnsongrass plant response rating (0 to 100): Preemergence, visual rating after 13 to 15 d
# Excerpt: (§3) Seeds of plant species selected from blackgrass (Alopecurus myosuroides), ryegrass, Italian (Italian ryegrass, Lolium multiflorum), wheat (winter wheat, Triticum aestivum), galium (catchweed bedstraw, Galium aparine), corn (Zea mays), crabgrass, large (large crabgrass, Digitaria sanguinalis), foxtail, giant, (giant foxtail, Setaria faberii), johnsongrass (Sorghum halepense), lambsquarters (Chenopodium album), morningglory (Ipomoea coccinea), nutsedge, yellow (yellow nutsedge, Cyperus esculentus), pigweed (Amaranthus retroflexus), ragweed (common ragweed, Ambrosia elatior), soybean (Glycine max), barnyardgrass (Echinochloa crus-galli), oilseed rape (Brassica napus), waterhemp (common waterhemp, Amaranthus rudis), and velvetleaf (Abutilon theophrasti) were planted into a blend of loam soil and sand and treated preemergence with test chemicals formulated in a non-phytotoxic solvent mixture which included a surfactant. At the same time, plants selected from these crop and weed species and also chickweed (common chickweed, Stellaria media), oat, wild (wild oat, Avena fatua), and kochia (Kochia scoparia), were planted in pots containing Sunshine Redi-Earth® planting medium comprising spaghnum peat moss, vermiculite, starter nutrients and dolomitic limestone and treated with postemergence applications of test chemicals formulated in the same manner. Plants ranged in height from 2 to 18 cm (1- to 4-leaf stage) for postemergence treatments. […] A dash (-) response means no test result.
# radish, wild = assay: Test D postemergence; type: in vivo, Raphanus raphanistrum; conditions: scale 0 to 100
# Excerpt: as §1
# chickweed = assay: Test D preemergence; type: in vivo, Stellaria media; conditions: for Plant response rating: Chickweed: scale 0 to 100
# Excerpt: as §1
# ragweed = assay: Test C preemergence; type: in vivo, Ambrosia elatior; conditions: for Ragweed plant response rating (0 to 100): Preemergence, visual rating after 13 to 15 d; for Plant response rating (scale of 0 to 100 where 0 is no effect and 100 is complete control): Ragweed, preemergence
# Excerpt: as §3
# blackgrass = assay: Test D preemergence; type: in vivo, Alopecurus myosuroides; conditions: for Plant response rating: Blackgrass: scale 0 to 100
# Excerpt: as §1
# bluegrass = assay: Test D postemergence; type: in vivo, Poa annua; conditions: scale 0 to 100
# Excerpt: as §1
# [3] = 16 g ai/ha, 0 is no effect, 100 is complete control
smiles,measurement,setting,value
CCOc1nc(-c2ccccc2)nn1Cc1ccnc(C(F)(F)F)c1 [Compound 27],"Plant response rating (0 to 100), Kochia",kochia; [3],85
same,Plant response rating: Kochia,kochia; 62 g ai/ha,95
same,Plant response rating: Kochia,kochia; 125 g ai/ha,100
same,"Plant response rating: Oat, Wild","oat, wild; 16 g ai/ha",35
same,"Plant response rating: Oat, Wild","oat, wild; 31 g ai/ha",45
same,"Plant response rating: Oat, Wild","oat, wild; 62 g ai/ha",50
same,"Plant response rating: Oat, Wild","oat, wild; 125 g ai/ha",60
same,"Plant response rating, Galium",galium; 125 g ai/ha,80
same,"Plant response rating, Galium",galium; 500 g ai/ha,90
same,"Plant response rating, Ryegrass, Italian","ryegrass, Italian; 125 g ai/ha",90
same,"Plant response rating, Ryegrass, Italian","ryegrass, Italian; 500 g ai/ha, approx. 10 d",100
same,Plant response rating: Lambsquarters,lambsquarters; 16 g ai/ha,85
same,Plant response rating: Lambsquarters,lambsquarters; 31 g ai/ha,95
same,Plant response rating: Lambsquarters,lambsquarters; 62 g ai/ha,95
same,Plant response rating: Lambsquarters,lambsquarters; 125 g ai/ha,95
same,"Plant response rating (0 to 100), Pigweed",pigweed [1]; [3],100
same,Plant response rating: Pigweed,pigweed [1]; 62 g ai/ha,100
same,Plant response rating: Pigweed,pigweed [1]; 125 g ai/ha,100
same,Plant response rating: Pigweed,pigweed [2]; 16 g ai/ha,100
same,Plant response rating: Pigweed,pigweed [2]; 31 g ai/ha,100
same,Plant response rating: Pigweed,pigweed [2]; 62 g ai/ha,100
same,Plant response rating: Pigweed,pigweed [2]; 125 g ai/ha,100
same,Plant response rating (scale of 0 to 100 where 0 is no effect and 100 is complete control),johnsongrass; 125 g ai/ha,80
same,Plant response rating (scale of 0 to 100 where 0 is no effect and 100 is complete control),johnsongrass; 250 g ai/ha,100
same,Johnsongrass plant response rating (0 to 100),johnsongrass; 31 g ai/ha,45
same,Johnsongrass plant response rating (0 to 100),johnsongrass; 62 g ai/ha,80
same,"Plant response rating: Radish, Wild","radish, wild; 16 g ai/ha",85
same,"Plant response rating: Radish, Wild","radish, wild; 31 g ai/ha",90
same,"Plant response rating: Radish, Wild","radish, wild; 62 g ai/ha",100
same,"Plant response rating: Radish, Wild","radish, wild; 125 g ai/ha",100
same,"Plant response rating (0 to 100), Chickweed",chickweed; [3],85
same,Plant response rating: Chickweed,chickweed; 31 g ai/ha,95
same,Plant response rating: Chickweed,chickweed; 62 g ai/ha,100
same,Plant response rating: Chickweed,chickweed; 125 g ai/ha,100
same,Ragweed plant response rating (0 to 100),ragweed; 31 g ai/ha,50
same,Ragweed plant response rating (0 to 100),ragweed; 62 g ai/ha,50
same,Plant response rating (scale of 0 to 100 where 0 is no effect and 100 is complete control),ragweed; 125 g ai/ha,98
same,Plant response rating (scale of 0 to 100 where 0 is no effect and 100 is complete control),ragweed; 250 g ai/ha,98
same,"Plant response rating (0 to 100), Blackgrass",blackgrass; [3],25
same,Plant response rating: Blackgrass,blackgrass; 31 g ai/ha,30
same,Plant response rating: Blackgrass,blackgrass; 62 g ai/ha,45
same,Plant response rating: Blackgrass,blackgrass; 125 g ai/ha,70
same,Plant response rating: Bluegrass,bluegrass; 16 g ai/ha,35
same,Plant response rating: Bluegrass,bluegrass; 31 g ai/ha,60
same,Plant response rating: Bluegrass,bluegrass; 62 g ai/ha,65
same,Plant response rating: Bluegrass,bluegrass; 125 g ai/ha,70
